Holding throughout (assay type): biochemical
Experiment [1] addresses T1, thrombin (Homo sapiens, UniProt P00734). Description: inhibition of the amidolytic activity of thrombin (chromogenic substrate H-D-Phe-Pip-Arg-paranitroaniline). As to conditions: substrate 10 or 50 μM; thrombin 0.5 nM final conc.; pH 7.8; room temperature. The protocol: The measurements were carried out on microtitre plates at room temperature. For this, in each well of the plate […] of buffer (50 mM Tris, 100 mM NaCl, 0.1% polyethylene glycol; pH 7.8) were mixed with […] of the inhibitor dissolved in DMSO and diluted in the buffer and […] of human thrombin (0.5 nM final conc.). After incubation for 10 minutes the reaction was started by the addition of the chromogenic substrate H-D-Phe-Pip-Arg-paranitroaniline (10 or 50 μM final concentration), in which Pip represents the characterizing group 2-piperidylenecarbonyl of the α-aminoacid H-Pip-OH, which is (S)-piperidine-2-carboxylic acid (or L-homoproline). The hydrolysis of the substrate was followed spectrophotometrically on a kinetic microtitre plate reader for 5 minutes.

The target in experiment [2] is Factor Xa (Homo sapiens, UniProt P00742). Description: inhibition of the amidolytic activity of Factor Xa (chromogenic substrate Bz-Ile-Glu-Gly-Arg-paranitroaniline). The conditions noted are these: substrate 167 μM final concentration.
The target in experiment [3] is T1, thrombin. Description: thrombin test of crude products (chromogenic substrate S-2238, 405 nm). As to conditions: crude product. How it is done:
5 g (1.5 mmol) of Fmoc-TGR resin according to H. Rink Tetrahedron Lett. 28, 3787 (1987) were shaken for 30 minutes. with a 20% solution of piperidine in DMF. Subsequently, the resin was washed with DMF. 1.19 g (3 mmol) of Fmoc-arginine, 950 mg (6 mmol) of 1-hydroxy-benzotriazole (HOBT--containing about 20% water), 570 mg of diisopropylcarbodiimide and DMF were added and the mixture was shaken for 1 hour. The resin was washed with DMF and shaken for 30 minutes with a 20% solution of piperidine in DMF. Thereafter, it was washed with DMF, isopropanol, water and methanol. Subsequently, the resin was distributed in equal portions in 30 reaction vessels, then 0.5 mmol of a carbonyl compound (a. paraformaldehyde, b. pivalaldehyde, c. benzaldehye, d. benzophenone and e. phenylpropionaldehyde) were added to in each case 6 of these vessels, whereafter to each 0.5 mmol of a maleimide (maleimide, N-methyl-, N-butyl-, N-cyclohexylmethyl-, N-phenyl- or N-benzyl-maleimide) was added such that each vessel contains a different pairing of carbonyl compound and maleimide. About 5 ml of a mixture of 150 ml of methanol and 8 ml of acetic acid were added to each vessel as the solvent and the batch was heated under reflux for 22 hours. After cooling the solvent was sucked off and the resin was washed in each case twice with dimethyl sulfoxide, isopropanol, water and isopropanol. The resin was then treated with in each case about 5 ml of a mixture of 40% trifluoroacetic acid, 50% dichloromethane, 5% water and 5% isopropanol and shaken for 2 hours. After filtration the 30 filtrate solutions were concentrated. 30 crude products were thus obtained as yellow oils. For mass spectroscopic and HPLC investigations about 0.5 mg of each oil was removed and taken up in […].

The record followed here is patent US5686459A, “Dioxopyrrolo pyrrole derivatives” (Hoffmann-La Roche Inc., priority 1995, dated 1997).

Structures can show the parent of a compound that is named as a salt.

Sequence of Factor Xa (P00742 235-488 limits assumed): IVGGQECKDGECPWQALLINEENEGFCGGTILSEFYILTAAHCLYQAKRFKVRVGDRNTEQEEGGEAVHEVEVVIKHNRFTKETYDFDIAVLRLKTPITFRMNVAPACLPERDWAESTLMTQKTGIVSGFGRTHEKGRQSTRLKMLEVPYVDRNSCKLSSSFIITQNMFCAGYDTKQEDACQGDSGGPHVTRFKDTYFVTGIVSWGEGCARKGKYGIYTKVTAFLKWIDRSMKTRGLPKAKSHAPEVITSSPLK
Sequence of Factor Xa (P00742 41-179 partner limits assumed): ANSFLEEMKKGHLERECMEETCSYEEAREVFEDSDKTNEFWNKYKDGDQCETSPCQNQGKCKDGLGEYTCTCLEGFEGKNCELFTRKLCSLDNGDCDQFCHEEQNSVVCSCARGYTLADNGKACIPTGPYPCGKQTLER

As to `C[C@H]1[C@@H]2C(=O)N(Cc3ccccc3)C(=O)[C@@H]2[C@H](c2ccc(C(=N)N)cc2)N1C` (racemic) [4.A)a), (1RS,3SR,3aRS,6aSR)-4-(5-Benzyl-2,3-dimethyl-4,6-dioxo-octahydro-pyrrolo[3,4-c]pyrrol-1-yl)-benzimidamide hydrochloride], in experiment [1], the Ki – broadly, the equilibrium dissociation constant of an inhibitor or competing ligand from its target – was found to be 670 nM.
The same measure, in the same setting: then `N=C(N)c1ccc([C@@H]2[C@@H]3C(=O)N(Cc4ccc5c(c4)OCO5)C(=O)[C@@H]3[C@H]3CCCN32)cc1` (racemic) [4.A)g), (3aRS,4SR,8aRS,8bSR)-4-[2-(Benzo[1,3]dioxol-5-ylmethyl)-1,3-dioxo-decahydro-pyrrolo[3,4-a]pyrrolizin-4-yl]-benzimidamide hydrochloride], with 90 nM; and `N=C(N)c1ccc([C@@H]2[C@@H]3C(=O)N(CC4CCCCC4)C(=O)[C@@H]3[C@H]3CCCN32)cc1` (racemic) [7.A)g), (3aRS,4SR,8aRS,8bSR)-4-(2-Cyclohexylmethyl-1,3-dioxo-decahydro-pyrrolo[3,4-a]pyrrolizin-4-yl)-benzimidamide hydrochloride], with 350 nM; and `N=C(N)c1ccc([C@H]2[C@H]3C(=O)N(Cc4ccc5c(c4)OCO5)C(=O)[C@H]3[C@@H]3CSCN32)cc1` (racemic) [Example 7.A)i), (5RS,5aSR,8aRS,8bRS)-4-[7-(Benzo[1,3]dioxol-5-ylmethyl)-6,8-dioxo-octahydro-pyrrolo[3',4':3,4]pyrrolo[1,2-c]thiazol-5-yl]-benzimidamide hydrochloride], with 440 nM.
As to `CCCCN1C(=O)[C@@H]2[C@H](C1=O)[C@H]1CCCN1[C@@H]2c1ccc(NC(=N)N)cc1` (racemic) [Example 9, (3aRS,4SR,8aRS, 8bSR)-N-[4-(2-Butyl-1,3-dioxo-decahydro-pyrrolo[3,4-a]pyrrolizin-4-yl)-phenyl]-guanidinium nitrate], the affinity in experiment [1] corresponds to a Ki of 110 nM.
The compound `N=C(N)c1ccc([C@@H]2N[C@](COCc3ccccc3)(C(=O)O)[C@@H]3C(=O)N(Cc4ccc([N+](=O)[O-])cc4)C(=O)[C@@H]32)cc1` (racemic) [Example 18, (1RS,3RS,3aSR,6aRS)-1-(benzyloxy-methyl)-3-(4-carbamimidoyl-phenyl)-5-(4-nitro-benzyl)-4,6-dioxo-octahydro-pyrrolo[3,4-c]pyrrole-1-carboxylic acid hydrochloride] registered a Ki in experiment [2] of 98 nM.
In experiment [2], `N=C(N)c1ccc([C@@H]2N[C@](COCc3ccccc3)(C(=O)O)[C@@H]3C(=O)N(Cc4ccc(N)cc4)C(=O)[C@@H]32)cc1` (racemic) [Example 19, (1RS,3RS,3aSR,6aRS)-5-(4-amino-benzyl)-1-(benzyloxy-methyl)-3-(4-carbamimidoyl-phenyl)-4,6-dioxo-octahydro-pyrrolo[3,4-c]pyrrole-1-carboxylic acid hydrochloride] had an inhibitory constant (Ki) of 76 nM.
Compound `N=C(N)c1ccc([C@@H]2[C@@H]3C(=O)N(Cc4ccccc4)C(=O)[C@@H]3[C@H]3C[C@H](O)CN32)cc1` [7.A)o), (3aR,4S,7S,8aR,8bS)-4-(2-Benzyl-7-hydroxy-1,3-dioxo-decahydro-pyrrolo[3,4-a]pyrrolizin-4-yl)-benzimidamide hydrochloride] yielded a Ki in experiment [1] of 670 nM. This counts as sub-micromolar.
On to `N=C(N)NCCCC1(C(N)=O)NC(c2ccccc2)C2C(=O)N(c3ccccc3)C(=O)C21` (stereo not drawn) [Example 12 m), 3,5-diphenyl-1-(3-guanidino-propyl)-4,6-dioxo-octahydro-pyrrolo[3,4-c]pyrrole-1-carboxamide], for which, in experiment [3] (among the named cycloadducts of Example 12), the “inhibitory activity in the thrombin test” value was “greatest inhibitory activity”.
On to `CSCCC1(C(=O)O)NC(c2ccc(C(=N)N)cc2)C2C(=O)N(CC3CCCCC3)C(=O)C21` (stereo not drawn) [Example 13 n), 5-cyclohexylmethyl-1-(2-methylsulfanyl-ethyl)-3-(4-carbamimidoyl-phenyl)-4,6-dioxo-octahydro-pyrrolo[3,4-c]pyrrole-1-carboxylic acid], for which the “inhibitory activity in the thrombin test” value in experiment [3] (among the named cycloadducts of Example 13) is “greatest inhibitory activity”.
As to `N=C(N)c1ccc(C2C3C(=O)N(c4ccccc4)C(=O)C3C(CO)(C(=O)O)N2CCC(N)=O)cc1` (stereo not drawn) [Example 14 p), 3-hydroxymethyl-5-phenyl-1-(4-carbamimidoyl-phenyl)-2-(2-carbamoyl-ethyl)-4,6-dioxo-octahydro-pyrrolo[3,4-c]pyrrole-3-carboxylic acid], the “inhibitory activity (determined according to Example 12)” value in experiment [3] (among the products of Example 14) is given as “highest inhibitory activity”.
As to `N=C(N)c1ccc(C2C3C(=O)N(C(Cc4ccccc4)C(N)=O)C(=O)C3C3CCCN32)cc1` (stereo not drawn) [Example 15], the “inhibitory activity in the thrombin test” value in experiment [3] (among the 20 crude products of Example 15) was “highest inhibitory activity”.
